Measured values: ChEMBL document CHEMBL4665681, “On the Promise of Photopharmacology Using Photoswitches: A Medicinal Chemist's Perspective” (J Med Chem, 2020)
Values after ≈ are worked out from the molar mass of the structure shown. One block for each compound: values may come before it.

Assays:
Histone deacetylase 2 = Histone deacetylase 2 (Homo sapiens, UniProt Q92769); test: Light-dependent inhibition of recombinant full length human HDAC2 expressed in baculovirus infected Sf9 insect cells preincubated for 1 hr in presence of LED light irradiation followed by substrate addition and measured for 30 mins by fluorescence method
[1] = Thermal relaxation half life in PBS buffer; assay type: physicochemical
Escherichia coli [2] = test: Antibacterial activity against Quinolone-sensitive Escherichia coli CS1562 (tolC6:tn10) using irradiated compound measured every 10 min for 12 hrs by broth dilution method; assay type: functional; details: light or radiation study
Escherichia coli [3] = test: Antibacterial activity against Quinolone-sensitive Escherichia coli CS1562 (tolC6:tn10) measured every 10 min for 12 hrs by broth dilution method; assay type: functional
[4] = Half life of compound in water at 21x10^-6 M; assay type: physicochemical; details: dose 21 10^-6M
[5] = Half life in Dutch Belted rabbit retina at 30 uM, IVT measured after 24 to 336 hrs by LC-MS/MS analysis; assay type: ADME, tissue-based, Oryctolagus cuniculus; details: topical or ocular, time 24-336 hrs

Sequence of Histone deacetylase 2 (Q92769 whole entry): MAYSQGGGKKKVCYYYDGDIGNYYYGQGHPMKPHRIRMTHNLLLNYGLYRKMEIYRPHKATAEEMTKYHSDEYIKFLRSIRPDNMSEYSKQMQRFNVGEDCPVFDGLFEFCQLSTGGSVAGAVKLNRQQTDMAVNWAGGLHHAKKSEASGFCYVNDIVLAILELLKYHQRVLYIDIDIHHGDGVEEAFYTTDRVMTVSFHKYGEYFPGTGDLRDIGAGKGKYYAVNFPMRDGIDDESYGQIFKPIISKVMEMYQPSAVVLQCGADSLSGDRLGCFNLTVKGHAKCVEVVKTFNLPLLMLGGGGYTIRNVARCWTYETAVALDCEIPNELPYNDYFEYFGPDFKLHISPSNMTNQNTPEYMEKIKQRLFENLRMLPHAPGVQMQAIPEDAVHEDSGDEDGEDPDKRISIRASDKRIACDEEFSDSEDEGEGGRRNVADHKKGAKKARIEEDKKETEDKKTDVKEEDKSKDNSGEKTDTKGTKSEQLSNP

- IC50 (Histone deacetylase 2): < 100 nM
- t1/2 [1]: 56 microsec
SMILES: CN(C)c1ccc(/N=N\c2ccc(C(=O)Nc3cc(-c4cccs4)ccc3O)cc2)cc1

- MIC (Escherichia coli [2]): 16 µg/mL (≈ 43.8 µM)
- MIC (Escherichia coli [3]): ≥ 64 µg/mL
- half-life at 21 µM [4]: 0.0833 days
SMILES: CCn1cc(C(=O)O)c(=O)c2ccc(/N=N\c3ccc(OC)c(C)c3)cc21

- half-life at 30 µM [5]: 24 days
SMILES: CCN(Cc1ccccc1)c1ccc(/N=N/c2ccc(NC(=O)C[N+](CC)(CC)CC)cc2)cc1 [KIO-301]
